Measured values: paper PMC10711279 (Frontiers in Pharmacology, 2023)

Legend:
[1] = design: method as in Turner and Merlis, 1959; details: dose range 5–20 mg; ref Turner and Merlis, 1959; cited from earlier work
[2] = Blood plasma levels (LC-MS/MS) after DMT/harmine administration
Procedure: Blood samples were collected from the left antecubital vein at −30 (baseline), −15, 0, 15, 30, 45, 60, 90, 120, 180, 240, 300 and 360 min after the first DMT administration for analysis of blood plasma levels of harmine, DMT and the two major DMT metabolites 3-indole acetic acid (3-IAA) and N-methyl-tryptamine (NMT). […] Blood samples were immediately centrifuged for 10 min at 2000 RCF. Then, plasma was transferred to Eppendorf tubes, shock-frozen in liquid nitrogen (∼-196°C), and stored at −80°C until assayed.
For the sample preparation 200 µL of plasma were spiked with 50 µL internal standard (IS) mixture (40 ng/mL DMT-d6 and harmine-d3) and 50 µL methanol (MeOH). Proteins were precipitated by adding 400 µL of acetonitrile (ACN). The samples were shaken for 10 min and centrifuged for 5 min at 10,000 rpm. 350 μL of the supernatant was transferred into an auto-sampler vial, evaporated to dryness under a gentle stream of nitrogen at room temperature and reconstituted in 100 µL eluent-mixture (98:2, v/v). External calibrator and quality control (QC) samples were prepared accordingly, replacing the MeOH with a calibrator or QC solution mixtures. Calibrator and QC samples containing 3-IAA were prepared separately, replacing plasma with water. The calibration ranges were 0.5–500 ng/mL for DMT and DMT-N-oxide, 2.5–120 ng/mL for harmine, 1–80 ng/mL for harmol, 0.015–10 ng/mL for NMT and 35–3,000 ng/mL for 3-IAA.
Samples were analyzed on an ultra-high performance liquid chromatography (UHPLC) system (Thermo Fisher, San Jose, CA) coupled to a linear ion trap quadrupole mass spectrometer 5,500 (Sciex, Darmstadt, Germany). The mobile phases consisted of a mixture of water (eluent A) and ACN (eluent B), both containing 0.1% formic acid (v/v). Using a Kinetex C18 column 50 × 2.1 mm, 2.6 µm (Phenomenex, Aschaffenburg, Germany), the flow rate was set to 0.5 mL/min with the following gradient: starting conditions 98% eluent A, decreasing to 70% within 4 min, followed by a quick decrease to 5% within 1 min, holding for 0.5 min and returning to starting conditions for 1.5 min, resulting in a total runtime of 7 min. The mass spectrometer was operated in positive electrospray ionization mode with scheduled multiple reaction monitoring. The following transitions of precursor ions to product ions were selected as quantifier ions: DMT m/z 189→115, DMT-N-oxide m/z 205→117, harmine m/z 213→169, harmol m/z 199→131, NMT m/z 175→144 and 3-IAA m/z 176→103.

[3] = ref Vogt et al., 2023; cited from earlier work
[4] = in vivo; cited from earlier work
[5] = day 1, 250 mg oral harmine + 30 mg oral DMT
[6] = day 2, 250 mg oral harmine + 50 mg oral DMT
[7] = day 3, 150 mg buccal harmine + max 50 mg intranasal DMT
[8] = day 4, 200 mg buccal harmine + max 90 mg intranasal DMT

Row | Compound | Peak of the mean plasma concentrations [2, 5] [ng/mL] | Peak of the mean plasma concentrations [2, 6] [ng/mL] | Peak of the mean plasma concentrations [2, 7] [ng/mL] | Peak of the mean plasma concentrations [2, 8] [ng/mL] | Duration of action [4] [h] | other results
1 | CN(C)CCc1c[nH]c2ccccc12 [DMT freebase, N,N-dimethyltryptamine] | – | – | – | – | – | Effect of intranasal administration [1]: ineffective
2 | CN(C)CCc1c[nH]c2ccccc12 [DMT, N,N-dimethyltryptamine] | 27.9 ± 15.5 | 23.6 ± 11.9 | 23.9 ± 5.0 | 33.1 ± 9.3 | – | Plasma elimination half-life [3]: 5 to 10 min
3 | CCN(CC)C(=O)[C@@H]1C=C2c3cccc4[nH]cc(c34)C[C@H]2N(C)C1 [LSD] | – | – | – | – | 10 to 12 | –
4 | COc1ccc2c(c1)[nH]c1c(C)nccc12 [harmine] | 125.5 ± 111.2 | 104.8 ± 100.5 | 93.9 ± 33.5 | 132.4 ± 111.6 | – | Tmax ([2]; human, plasma, po): 1 to 4.5 h
5 | CN(C)CCc1c[nH]c2cccc(OP(=O)(O)O)c12 [psilocybin] | – | – | – | – | 4 to 6 | –
